Values of other authors as cited in article PMC5427847, “Epilepsy-associated GRIN2A mutations reduce NMDA receptor trafficking and agonist potency – molecular profiling and functional rescue” (Scientific Reports, 2017).

Assays:
[1] = test system: GluN2A K484 to aspartic acid; settings: K484 to aspartic acid versus wild type
[2] = test system: GluN1 D732 mutated to alanine, co-expressed with GluN2A; settings: receptor remaining on the cell surface
D732A-GluN1 = settings: competitive glycine site antagonist

N[C@@H](CCC(=O)O)C(=O)O [Glutamate, glutamate]
Reduction of glutamate affinity [1]: 6 fold

NCC(=O)O [Glycine, glycine]
Effect on glycine binding [1]: no measurable effect | Reduction in glycine potency [2]: 4000 fold

O=C(O)c1cc(=O)c2c(Cl)cc(Cl)cc2[nH]1 [DCKA]
Rescue of mutant receptors trapped within the ER (D732A-GluN1): has been achieved
